{"source": "paper PMC11077991", "about": "“The small molecule CBR-5884 inhibits the Candida albicans phosphatidylserine synthase” (mBio, 2024)", "key": {"[1]": {"test_system": "phospholipid levels in C. albicans", "experiment": "thin-layer chromatography of phospholipids", "type": "cell-based, Candida albicans", "conditions": "170 µM, 2 h", "procedure": "Wild-type SC5314 and cho1ΔΔ strains grown overnight in YPD were inoculated into fresh YPD at OD600 of 0.1 and were shaken for another 3 h. Then, 170 µM CBR-5884 or equivalent DMSO solvent was added to both wild-type and cho1ΔΔ cultures, and cells were shaken for another 2 h. Then, cells were washed with 1× PBS three times and normalized to a total OD600 of 1. The phospholipids were extracted with the hot ethanol method as described in reference ([14]). A Whatman 250 µm silica gel aluminum backed plate was treated, and separation of phospholipids was carried out as described in reference ([100]). Phospholipid standards PI, PE, PS, and PC were purchased from Avanti. The quantification of the phospholipids was done in ImageJ software."}, "cho1ΔΔ strain": {"test_system": "cho1ΔΔ strain", "experiment": "growth of cho1ΔΔ strain in rich YPD media", "type": "cell-based, Candida albicans"}, "purified hexameric Cho1": {"biological_target": "purified hexameric Cho1 (Candida albicans, UniProt A0A1D8PF32)", "sequence (A0A1D8PF32 entry or part of it)": "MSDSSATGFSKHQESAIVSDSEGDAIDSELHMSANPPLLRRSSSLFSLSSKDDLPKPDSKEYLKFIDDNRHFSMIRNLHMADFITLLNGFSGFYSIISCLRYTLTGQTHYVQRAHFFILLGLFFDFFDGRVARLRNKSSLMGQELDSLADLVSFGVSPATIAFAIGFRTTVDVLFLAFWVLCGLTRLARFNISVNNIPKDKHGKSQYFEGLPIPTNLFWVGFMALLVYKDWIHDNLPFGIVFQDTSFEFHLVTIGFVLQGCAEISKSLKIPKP", "experiment": "kinetic curves of purified hexameric Cho1 (radioactive PS synthase assay)", "type": "biochemical", "procedure": "For the kinetic curves, the specific activity was measured in the reaction containing 50 mM Tris-HCl (pH 8.0), 1 mM MnCl2, 0.025%–0.3% Triton X-100 and 0.033%–0.07% digitonin with 0.75–1.5 µg purified Cho1 protein. The concentrations of 18:1 CDP-DAG (Avanti, cat# 870520) and serine are indicated in the graphs, and the mol % of CDP-DAG was kept between 4.2% and 5.0% for the curve where CDP-DAG was varied (Fig. 6C and D) and at 4.8% (200 μM) for the curve where serine was varied (Fig. 6B). The concentrations of CBR-5884 used in each reaction are indicated in the graph, and CBR-5884 was incubated with purified Cho1 protein in the presence of CDP-DAG on ice for at least 2 h before the addition of L-[^3H]-serine. The reaction was stopped at 20, 40, and 60 min, and specific activity was calculated based on the slope of linear PS production, representing the initial velocity."}, "purified Cho1": {"test_system": "purified Cho1", "experiment": "CBR-5884 washout assay (radioactive PS synthase assay)", "type": "biochemical, Candida albicans", "conditions": "100 µM preincubated 2 h, buffer exchange", "procedure": "For CBR-5884 washout assays, purified Cho1 was incubated with CBR-5884 at a final concentration of 100 µM, or equivalent DMSO, in 100 µL volume on ice for 2 h. The CBR-5884 was then washed out by exchanging with 4 mL 50 mM Tris-HCl at pH 8.0 and 0.1% digitonin three times in the Amicon Ultra Centrifugal Filter (10 kDa MWCO). The sample was concentrated to the volume of approximately 500 µL, and protein concentration was determined using the Pierce detergent-compatible Bradford assay kit. The reaction was set up with 50 mM Tris-HCl (pH 8.0), 1 mM MnCl2, 0.1% Triton X-100, 0.1% digitonin, 0.1 mM (4.7 mol %), 16:0 CDP-DAG (Avanti, cat# 870510), and 10 mM L-serine [spiked with 5% (by volume) L-[3H]-serine (15 Ci/mmol)] at a total volume of 100 µL, in the presence of 100 µM CBR-5884 or equivalent DMSO solvent. The reaction was stopped at 20, 40, and 60 min, and specific activity was calculated based on the slope of linear PS production, representing the initial velocity."}, "[2]": {"test_system": "in vivo PS production in wild-type C. albicans", "experiment": "metabolic labeling of PS using probe C-L-SerN3", "type": "cell-based, Candida albicans", "conditions": "170 µM CBR-5884, 1.5 mM probe", "procedure": "The C-L-SerN3 probe [(S)-1-((3-azidopropyl)amino)-3-hydroxy-1-oxopropan-2-aminium chloride] was synthesized as described in reference ([59]). Cells grown overnight in YPD were washed three times in H2O and inoculated into minimal media at a starting OD600 of 0.05. Cells were shaken for 5 h before 1.5 mM C-L-SerN3 probe was added, along with 170 µM CBR-5884 or an equivalent volume of DMSO. Cells were then incubated for another 5 h before being washed three times with H2O, and 5% BSA in 1× PBS was used to treat cells for 20 min. The cells were then washed three times with 1× PBS and then resuspended to OD600 of 0.6 in 1 mL PBS + 1 µM AZDye 488 DBCO (Click chemistry tools, cat# 1278-1). Cells were covered with aluminum foil and rocked for 1 h, and the dye was removed by pelleting the cells at 5,000 × g followed by washing with shaking at 1,000 rpm three times in 1× PBS, and resuspended in 200 µL Fluoromount-G mounting medium (cat# 00-4958-02). For each treatment, 10 µL of cells was added to a glass slide and 3 µL fresh Fluoromount-G mounting medium was used to mix the sample. […] The samples were excited using light at a wavelength of 488 nm, and the resulting fluorescence was captured within the range of 498–550 nm using a HyD detector. […] A total of 40 cells from at least 10 images were used for the quantification in ImageJ software."}}, "note": "pKi: −log10 of the molar value."}
{"smiles": "CCOC(=O)c1sc(NC(=O)c2ccco2)c(SC#N)c1C", "note": "[CBR-5884]", "values": [{"measurement": "PI levels", "setting": "[1]", "result": "not strongly affected"}, {"measurement": "relative PS level in wild-type strain vs DMSO", "setting": "[1]", "result": "significantly dropped"}, {"measurement": "relative PE levels", "setting": "[1]; wild-type and cho1ΔΔ", "result": "significantly decreased"}, {"measurement": "growth of the cho1ΔΔ strain", "setting": "cho1ΔΔ strain", "result": "decreases growth"}, {"measurement": "pKi", "setting": "purified hexameric Cho1", "result": 5.81}, {"measurement": "inhibition of Cho1 activity at sub-saturating serine", "setting": "purified hexameric Cho1; serine 20 mM, CDP-DAG 25-300 µM", "result": "observed"}, {"measurement": "inhibition of Cho1 activity at saturating serine", "setting": "purified hexameric Cho1; serine 32 mM, CDP-DAG varied", "result": "inhibition was overcome"}, {"measurement": "pattern of inhibition", "setting": "purified hexameric Cho1; serine varied, CDP-DAG 200 µM", "result": "competitive inhibition"}, {"measurement": "inhibition after preincubation and washout", "setting": "purified Cho1", "result": "absence of inhibition"}, {"measurement": "C-L-SerN3 fluorescence on the periphery of the cell", "setting": "[2]", "result": "significantly diminished"}]}
